Laboratory results reported in patent publication US20110098442A1, “PEPTIDES AND PEPTIDE DERIVATIVES AS WELL AS PHARMACEUTICAL COMPOSITIONS CONTAINING THE SAME” (priority 2006, published 2011).
Groups on a side chain read outwards from the residue. No end group written: not given here.

System: mouse-adapted Dengue virus (DEN-2, strain P23085)
Assay: Dengue virus infection in mice, mortality/survival
Format: in vivo, BALB/c mice
Conditions: 4.8 mg/kg/day intramuscular once a day for 5 days, starting on day 3 after infection, end of treatment period (day 10)
Experimental: A further possibility for establishing the biological effect in vivo is the reduction or complete suppression of mortality because of an infection with haemolytic viruses or bacteria. For this purpose, mice are, as described in Example 8, for instance infected with a dose of Dengue viruses, wherein 50% of the animals die within a period of 5-20 days after infection. The inventive compounds bring about a reduction of this mortality at a dose ranging from 0.001 to 500 mg/kg body weight, preferably at a dose ranging from […] body weight.
The biological effect of the compound of Example 3 was established in a model of Dengue virus infection in mice. 5-week-old male BALB/c mice were divided into 2 groups. All animals were infected subcutaneously with a mouse-adapted Dengue virus (DEN-2, strain P23085 at a dose of 1-2 LD50. 15 mice received 0.1 ml of 0.8% saline as intramuscular injection (control). The treated animals received 4.8 mg/kg/day of the agent of Example 3 as an intramuscular injection (diluted in 0.1 ml of 0.8% saline) once a day for 5 days, starting on day 3 after the virus infection.
At the end of the treatment period (day 10) the survival rates were compared.

Question: “Gly-His-Arg-Pro-Leu-Asp-Lys-Lys-Arg-Glu-Glu-Ala-Pro-Ser-Leu-Arg-Pro-Ala-Pro-Pro-Pro-Ile-Ser-Gly-Gly-Gly-Tyr-Arg-Cys-(S-succinimido-PEG20K)-amide (GHRPLDKKREEAPSLRPAPPPISGGGYRC([succinimido-PEG 20 kDa])-NH2) [Example 3]” was tested. Which “Mortality (dead animals/animals in group)” value (infection dose 1-2 LD50) did it give?
Answer: The value was 0/10.

Question: And the “Mortality Percentage” value (p < 0.05 vs control)?
Answer: The value was 0%.
